From PubChem BioAssay (NCI)
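Values below derive from 48-hour exposures of cells grown in 96-well plates, with endpoints linearly interpolated between the two concentrations bracketing the appropriate inhibition level. TGI is the concentration that stops growth completely.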

Tests used:
Experiment in all cases: NCI-60 cell line screen, 48 h
[1] = system: 786-0 renal
[2] = system: COLO 205 colon
[3] = system: HCT-116 colon
[4] = system: HOP-62 NSCLC
[5] = system: HT29 colon
[6] = system: IGROV1 ovarian
[7] = system: MALME-3M melanoma
[8] = system: MDA-MB-435
[9] = system: RXF 393 renal
[10] = system: SF-268 CNS
[11] = system: SK-MEL-28 melanoma
[12] = system: SK-MEL-5 melanoma
[13] = system: SNB-19 CNS
[14] = system: SNB-75 CNS
[15] = system: U251 CNS
[16] = system: UACC-62 melanoma
[17] = system: HCC-2998 colon

Structure (SMILES)	TGI [1] [µM]	TGI [2] [µM]	TGI [3] [µM]	TGI [4] [µM]	TGI [5] [µM]	TGI [6] [µM]	TGI [7] [µM]	TGI [8] [µM]	TGI [9] [µM]	TGI [10] [µM]	TGI [11] [µM]	TGI [12] [µM]	TGI [13] [µM]	TGI [14] [µM]	TGI [15] [µM]	TGI [16] [µM]	TGI [17] [µM]
C/C(=C\COP(=O)(O)OP(=O)(O)O)CC/C=C(\C)CNc1ccc([N+](=O)[O-])cc1	> 100	> 100	> 100	> 100	> 100	> 100	> 100	> 100	> 100	> 100	> 100	> 100	> 100	> 100	> 100	> 100	–
COc1ccc(C(CC(=O)c2ccccc2)C(=O)c2ccc3c(c2)OCO3)cc1 (configuration not stated)	> 100	> 100	–	> 100	–	> 100	> 100	> 100	–	> 100	> 100	> 100	> 100	> 100	> 100	> 100	> 100
O=C1/C(=C/c2ccccc2)CCCC/C1=C\c1ccccc1	> 100	> 100	> 100	> 100	32	> 100	> 100	–	59.5	> 100	> 100	70.4	> 100	> 100	> 100	> 100	> 100
COC(=O)/C(=C/CC(N=C(c1ccccc1)c1ccccc1)C(=O)OC)N=C(c1ccccc1)c1ccccc1 (configuration not stated)	> 100	> 100	> 100	> 100	> 100	> 100	> 100	–	> 100	> 100	> 100	> 100	> 100	83.9	> 100	> 100	> 100
Nc1ccc(C(=O)NN2C(=O)C(Cl)C2c2ccccc2O)cc1 (configuration not stated)	> 100	> 100	> 100	> 100	> 100	> 100	> 100	–	–	> 100	> 100	> 100	> 100	> 100	> 100	> 100	98.5
O=C1c2ccccc2C(=O)c2c(O)c(O)cc(O)c21	> 100	> 100	77.1	69.9	–	> 100	> 100	–	85.4	> 100	> 100	> 100	> 100	> 100	> 100	64.8	85.6
